This is an account of results in PubChem BioAssay AID328 (DTP/NCI, 2004).

Values joined by “and” are separate entries in the source; they are usually repeats but may differ in a detail not shown here. Equal entries are not always repeated. Inconclusive results and toxic doses are left out.

The assay concerns BDF1 mice, P388 leukemia ip, median survival T/C. Description: NCI In Vivo Anticancer Drug Screen. Data for tumor model P388 Leukemia (intraperitoneal) in B6D2F1 (BDF1) mice. As to conditions: endpoint: median survival time, higher = longer survival. The essentials: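 Survival ratio, drug arm over vehicle arm, in mice with a transplanted tumour.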
The mark [1] stands for this setting: dose: 100.0 mg/kg/injection, schedule: Q01DX009 (ip), vehicle: saline with Tween-80.
Setting [2] is: dose: 100.0 mg/kg/injection, schedule: Q04DX003 (ip), vehicle: saline with Tween-80.
Setting [3] is: dose: 200.0 mg/kg/injection, schedule: Q01DX009 (ip), vehicle: saline with Tween-80.
Setting [4] is: dose: 200.0 mg/kg/injection, schedule: Q04DX003 (ip), vehicle: saline with Tween-80.
Setting [5] is: dose: 400.0 mg/kg/injection, schedule: Q04DX003 (ip), vehicle: saline with Tween-80.
Where [6] appears, read: dose: 50.0 mg/kg/injection, schedule: Q01DX009 (ip), vehicle: saline with Tween-80.
The mark [7] stands for this setting: dose: 25.0 mg/kg/injection, schedule: Q01DX009 (ip), vehicle: saline with Tween-80.
[8] abbreviates: dose: 50.0 mg/kg/injection, schedule: Q04DX003 (ip), vehicle: saline with Tween-80.
Setting [9] is: dose: 75.0 mg/kg/injection, schedule: Q01DX009 (ip), vehicle: saline with Tween-80.
Where [10] appears, read: dose: 10.0 mg/kg/injection, schedule: Q01DX009 (ip), vehicle: saline.
Setting [11] is: dose: 100.0 mg/kg/injection, schedule: Q04DX003 (ip), vehicle: saline.
[12] abbreviates: dose: 200.0 mg/kg/injection, schedule: Q04DX003 (ip), vehicle: saline.
The mark [13] stands for this setting: dose: 400.0 mg/kg/injection, schedule: Q04DX003 (ip), vehicle: saline.

For the molecule `O=c1ccc2nccc3c4ccccc4n1c23`, the T/C is 100 % of control (dose: 100.0 mg/kg/injection, schedule: Q01DX001 (ip), vehicle: saline sonified); 100 % of control (dose: 200.0 mg/kg/injection, schedule: Q01DX001 (ip), vehicle: saline sonified); 100 % of control (dose: 400.0 mg/kg/injection, schedule: Q01DX001 (ip), vehicle: saline sonified).

In the case of `Nc1nc(SCCc2ccccc2)c2[nH]cnc2n1`, the T/C under setting [1] is 109 % of control; the T/C under setting [2] was 104 % of control; the T/C under setting [3] is 100 % of control; the T/C under setting [4] was 100 % of control; the T/C (dose: 400.0 mg/kg/injection, schedule: Q01DX009 (ip), vehicle: saline with Tween-80) was 90 % of control; the T/C under setting [5] is 104 % of control.

Consider `CCOc1cccc(/C=N/n2c(-c3ccccc3Cl)nc3ccccc3c2=O)c1O`, for which the T/C is, setting by setting: under setting [6], 90 % of control; under setting [1], 87 % of control.

Regarding `CC(C)=CCC/C(C)=C\CCl`, the T/C is, setting by setting: under setting [7], 105 % of control; (dose: 37.5 mg/kg/injection, schedule: Q01DX009 (ip), vehicle: saline with Tween-80) 99 % of control; under setting [6], 121 % of control; under setting [8], 107 % of control; under setting [9], 122 % of control; under setting [1], 105 % of control. Also, under setting [2], the T/C was 111 % of control.

As for `CCN=NNc1ccc(C)cc1`, the T/C runs as follows: (dose: 8.25 mg/kg/injection, schedule: Q01DX009 (ip), vehicle: saline with Tween-80) 90 % of control; (dose: 16.5 mg/kg/injection, schedule: Q01DX009 (ip), vehicle: saline with Tween-80) 100 % of control; (dose: 66.0 mg/kg/injection, schedule: Q01DX009 (ip), vehicle: saline with Tween-80) 100 % of control; under setting [1], 108 % of control.

In the case of `O=C1NC(=O)C(Cc2ccccc2)(c2ccccc2)N1` (stereo not given), the T/C under setting [9] is 97 % of control and the T/C (dose: 150.0 mg/kg/injection, schedule: Q01DX009 (ip), vehicle: saline with Tween-80) was 100 % of control.

Take `CC(=O)n1cc(C2CC(=O)OC3=C2CC(=O)C(C)(C)C3)c2ccccc21` (stereo not given): the T/C was 100 % of control under setting [8]; 88 % of control and 95 % of control under setting [2]; 94 % of control and 95 % of control under setting [4]; 94 % of control and 96 % of control under setting [5].

For the molecule `CC1OC(=O)C(C(C)C)NC(=O)C(C(C)C)OC(=O)C(C(C)C)NC(=O)C(C)OC(=O)C(C(C)C)NC(=O)C(C(C)C)OC(=O)C(C(C)C)NC(=O)C(C)OC(=O)C(C(C)C)NC(=O)C(C(C)C)OC(=O)C(C(C)C)NC1=O` (stereo not given), the T/C (dose: 3.12 mg/kg/injection, schedule: Q04DX003 (ip), vehicle: Klucel (hydroxypropylcellulose) (HPC)) was 100 % of control; the T/C (dose: 4.5 mg/kg/injection, schedule: Q01DX009 (ip), vehicle: saline) was 162 % of control; the T/C (dose: 6.25 mg/kg/injection, schedule: Q04DX003 (ip), vehicle: Klucel (hydroxypropylcellulose) (HPC)) was 107 % of control; the T/C under setting [10] is 183 % of control; the T/C (dose: 12.5 mg/kg/injection, schedule: Q04DX003 (ip), vehicle: Klucel (hydroxypropylcellulose) (HPC)) is 169 % of control; the T/C (dose: 15.0 mg/kg/injection, schedule: Q01DX009 (ip), vehicle: saline) is 177 % of control. The T/C (dose: 20.0 mg/kg/injection, schedule: Q01DX009 (ip), vehicle: Klucel (hydroxypropylcellulose) (HPC)) was 165 % of control.

Consider `O=S(=O)(O)c1ccc(O)cc1`, for which the T/C runs as follows: (dose: 100.0 mg/kg/injection, schedule: Q01DX009 (ip), vehicle: saline) 92 % of control; under setting [11], 105 % of control; (dose: 200.0 mg/kg/injection, schedule: Q01DX009 (ip), vehicle: saline) 88 % of control; under setting [12], 115 % of control; under setting [13], 110 % of control.

As to `CCc1c2cc(OC)c(OC)cc2cc2c3cc(OC)c(OC)cc3cc[n+]12` (tested in a mixture with another compound), the T/C is 150 % of control (dose: 50.0 mg/kg/injection, schedule: Q04DX003 (ip), vehicle: saline); 150 % of control (dose: 75.0 mg/kg/injection, schedule: Q04DX003 (ip), vehicle: saline); 166 % of control under setting [11]; 158 % of control (dose: 150.0 mg/kg/injection, schedule: Q04DX003 (ip), vehicle: saline).

With `Cc1cc(C)c(B2OB(c3c(C)cc(C)cc3C)O2)c(C)c1`, the T/C is 95 % of control (dose: 50.0 mg/kg/injection, schedule: Q04DX003 (ip), vehicle: Klucel (hydroxypropylcellulose) (HPC)); 100 % of control (dose: 100.0 mg/kg/injection, schedule: Q04DX003 (ip), vehicle: Klucel (hydroxypropylcellulose) (HPC)); 95 % of control (dose: 200.0 mg/kg/injection, schedule: Q04DX003 (ip), vehicle: Klucel (hydroxypropylcellulose) (HPC)).

Consider `CN(C)c1oc2ccc3ccccc3c2c(=O)c1C#N`, for which the T/C by setting is: under setting [6], 95 % of control; under setting [1], 97 % of control; under setting [3], 92 % of control.

In the case of `COC(CBr)OC`, the T/C reads like this: under setting [10], 102 % of control; (dose: 20.0 mg/kg/injection, schedule: Q01DX009 (ip), vehicle: saline) 98 % of control; (dose: 40.0 mg/kg/injection, schedule: Q01DX009 (ip), vehicle: saline) 98 % of control.

For `ClCCOCCOc1ccc(C2CCCCC2)cc1`, the T/C by setting is: under setting [11], 100 % of control; under setting [12], 100 % of control; under setting [13], 100 % of control.

As to `OC1(C2CCCCC2)C2CCCC1CCC2` (stereo not given), the T/C is, setting by setting: (dose: 12.5 mg/kg/injection, schedule: Q01DX009 (ip), vehicle: saline with Tween-80) 104 % of control; under setting [7], 95 % of control; under setting [6], 109 % of control; (dose: 100.0 mg/kg/injection, schedule: Q04DX003 (ip), vehicle: other) 104 % of control; (dose: 200.0 mg/kg/injection, schedule: Q04DX003 (ip), vehicle: other) 109 % of control; (dose: 400.0 mg/kg/injection, schedule: Q04DX003 (ip), vehicle: other) 104 % of control.

Take `CCOc1ccc(C(=O)Nc2c(C)cc(C)cc2C)cc1`: the T/C reads like this: under setting [2], 96 % of control; under setting [4], 112 % of control; under setting [5], 104 % of control.

Regarding `CS(=O)(=O)OCCCOS(C)(=O)=O`, the T/C runs as follows: (dose: 12.5 mg/kg/injection, schedule: Q01DX009 (ip), vehicle: Klucel (hydroxypropylcellulose) (HPC)) 109 % of control; (dose: 25.0 mg/kg/injection, schedule: Q01DX009 (ip), vehicle: Klucel (hydroxypropylcellulose) (HPC)) 109 % of control; (dose: 50.0 mg/kg/injection, schedule: Q01DX009 (ip), vehicle: Klucel (hydroxypropylcellulose) (HPC)) 119 % of control; (dose: 100.0 mg/kg/injection, schedule: Q01DX009 (ip), vehicle: Klucel (hydroxypropylcellulose) (HPC)) 95 % of control; under setting [11], 109 % of control; under setting [12], 118 % of control.

Turning to `CNC(C)c1ccc(C)cc1` (stereo not given), the T/C was 100 % of control (dose: 6.25 mg/kg/injection, schedule: Q04DX003 (ip), vehicle: saline); 104 % of control (dose: 12.5 mg/kg/injection, schedule: Q04DX003 (ip), vehicle: saline); 100 % of control (dose: 25.0 mg/kg/injection, schedule: Q04DX003 (ip), vehicle: saline).

With `C(=N\n1cnnc1)/c1ccc(/C=N/n2cnnc2)cc1`, the T/C reads like this: (dose: 100.0 mg/kg/injection, schedule: Q01DX001 (ip), vehicle: saline) 118 % of control; (dose: 200.0 mg/kg/injection, schedule: Q01DX001 (ip), vehicle: saline) 104 % of control; (dose: 400.0 mg/kg/injection, schedule: Q01DX001 (ip), vehicle: saline) 95 % of control.

In the case of `CCOC(=O)S(=O)(=O)c1ccc(C)cc1`, the T/C was 90 % of control (dose: 6.25 mg/kg/injection, schedule: Q01DX009 (ip), vehicle: saline); 90 % of control (dose: 12.5 mg/kg/injection, schedule: Q01DX009 (ip), vehicle: saline); 115 % of control (dose: 25.0 mg/kg/injection, schedule: Q01DX009 (ip), vehicle: saline).
